In patent publication US11046672B2, “Indolinones compounds and their use in the treatment of fibrotic diseases” (RESPIVERT LIMITED, priority 2015, dated 2021):
Values joined by “and” are separate entries in the source; they are usually repeats but may differ in a detail not shown here. Equal values may be shown once. Read-outs that look alike come from different tables or passages of the source. Values belong to the molecule of their own block, whether it stands above or below them.

Legend:
MRC5 cells = experiment: Cell viability assay in MRC5 cells (MTT)
VEGFR2 = VEGFR2 (Homo sapiens (Human), UniProt P35968); experiment: VEGF165 induced phosphorylation of VEGFR2 in endothelial cells (TeloHAEC, HTRF); format: cell-based; details: HAEC cells; n = 1 unless otherwise indicated
PDGFRβ [1] = biological target: T1, PDGFRβ (Homo sapiens (Human), UniProt P09619); experiment: Duration of action (washout) against PDGF-BB induced phosphorylation of PDGFRβ in human fetal lung fibroblast cells; format: cell-based; details: wash-out, MRC-5 cells
[2] = Pharmacokinetic measurements in rats (intravenous and intra-tracheal dosing); format: in vivo; details: rat; for concentration at 0.1 h / concentration at 1.5 h / concentration at 24 h: lung, read-out: lung concentration (nM) at time (h); for Kp at 0.1 h / Kp at 1.5 h: lung/plasma
PDGFRβ [3] = biological target: T1, PDGFRβ; experiment: PDGF-BB induced phosphorylation of PDGFRβ in fibroblasts (MRC5 cells, HTRF); format: cell-based; details: MRC5 cells; n = 1 unless otherwise indicated; read-out: PDGFBB-induced PDGFRβ phosphorylation in MRC5 cells (IC50)
PDGFRβ [4] = biological target: T1, PDGFRβ; details: read-out: Ki PDGFRβ; mean, n = 2 unless otherwise indicated
PAMPA permeability assay = format: in vitro ADME; details: PAMPA, donor and acceptor compartments

T1 sequence (P09619 33-1106): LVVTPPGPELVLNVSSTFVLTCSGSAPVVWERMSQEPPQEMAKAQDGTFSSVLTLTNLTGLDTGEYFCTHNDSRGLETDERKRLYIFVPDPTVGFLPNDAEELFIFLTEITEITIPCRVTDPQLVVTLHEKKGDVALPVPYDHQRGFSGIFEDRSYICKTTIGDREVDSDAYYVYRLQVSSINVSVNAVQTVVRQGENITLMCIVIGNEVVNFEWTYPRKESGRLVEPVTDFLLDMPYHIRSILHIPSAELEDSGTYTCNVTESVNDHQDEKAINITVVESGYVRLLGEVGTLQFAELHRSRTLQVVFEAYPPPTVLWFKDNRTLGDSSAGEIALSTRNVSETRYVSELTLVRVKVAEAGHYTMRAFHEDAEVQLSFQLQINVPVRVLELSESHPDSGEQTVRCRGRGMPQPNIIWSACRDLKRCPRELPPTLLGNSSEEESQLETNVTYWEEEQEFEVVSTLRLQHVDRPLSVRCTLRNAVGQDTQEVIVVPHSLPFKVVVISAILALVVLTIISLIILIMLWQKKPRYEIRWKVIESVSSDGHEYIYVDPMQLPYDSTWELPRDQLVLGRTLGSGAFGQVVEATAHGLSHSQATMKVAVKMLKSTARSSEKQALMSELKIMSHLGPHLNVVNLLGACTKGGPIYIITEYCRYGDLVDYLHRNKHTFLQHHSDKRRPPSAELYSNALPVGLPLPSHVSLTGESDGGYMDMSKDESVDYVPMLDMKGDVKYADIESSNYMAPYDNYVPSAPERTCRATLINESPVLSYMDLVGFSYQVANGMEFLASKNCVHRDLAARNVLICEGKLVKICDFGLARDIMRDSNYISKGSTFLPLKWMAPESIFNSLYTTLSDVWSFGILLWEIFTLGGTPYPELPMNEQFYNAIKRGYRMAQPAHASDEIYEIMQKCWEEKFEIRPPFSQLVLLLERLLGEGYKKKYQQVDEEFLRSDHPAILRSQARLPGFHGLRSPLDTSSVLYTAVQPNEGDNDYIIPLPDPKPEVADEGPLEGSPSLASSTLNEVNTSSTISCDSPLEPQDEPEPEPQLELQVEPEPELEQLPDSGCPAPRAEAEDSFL
VEGFR2, sequence (P35968 20-1356): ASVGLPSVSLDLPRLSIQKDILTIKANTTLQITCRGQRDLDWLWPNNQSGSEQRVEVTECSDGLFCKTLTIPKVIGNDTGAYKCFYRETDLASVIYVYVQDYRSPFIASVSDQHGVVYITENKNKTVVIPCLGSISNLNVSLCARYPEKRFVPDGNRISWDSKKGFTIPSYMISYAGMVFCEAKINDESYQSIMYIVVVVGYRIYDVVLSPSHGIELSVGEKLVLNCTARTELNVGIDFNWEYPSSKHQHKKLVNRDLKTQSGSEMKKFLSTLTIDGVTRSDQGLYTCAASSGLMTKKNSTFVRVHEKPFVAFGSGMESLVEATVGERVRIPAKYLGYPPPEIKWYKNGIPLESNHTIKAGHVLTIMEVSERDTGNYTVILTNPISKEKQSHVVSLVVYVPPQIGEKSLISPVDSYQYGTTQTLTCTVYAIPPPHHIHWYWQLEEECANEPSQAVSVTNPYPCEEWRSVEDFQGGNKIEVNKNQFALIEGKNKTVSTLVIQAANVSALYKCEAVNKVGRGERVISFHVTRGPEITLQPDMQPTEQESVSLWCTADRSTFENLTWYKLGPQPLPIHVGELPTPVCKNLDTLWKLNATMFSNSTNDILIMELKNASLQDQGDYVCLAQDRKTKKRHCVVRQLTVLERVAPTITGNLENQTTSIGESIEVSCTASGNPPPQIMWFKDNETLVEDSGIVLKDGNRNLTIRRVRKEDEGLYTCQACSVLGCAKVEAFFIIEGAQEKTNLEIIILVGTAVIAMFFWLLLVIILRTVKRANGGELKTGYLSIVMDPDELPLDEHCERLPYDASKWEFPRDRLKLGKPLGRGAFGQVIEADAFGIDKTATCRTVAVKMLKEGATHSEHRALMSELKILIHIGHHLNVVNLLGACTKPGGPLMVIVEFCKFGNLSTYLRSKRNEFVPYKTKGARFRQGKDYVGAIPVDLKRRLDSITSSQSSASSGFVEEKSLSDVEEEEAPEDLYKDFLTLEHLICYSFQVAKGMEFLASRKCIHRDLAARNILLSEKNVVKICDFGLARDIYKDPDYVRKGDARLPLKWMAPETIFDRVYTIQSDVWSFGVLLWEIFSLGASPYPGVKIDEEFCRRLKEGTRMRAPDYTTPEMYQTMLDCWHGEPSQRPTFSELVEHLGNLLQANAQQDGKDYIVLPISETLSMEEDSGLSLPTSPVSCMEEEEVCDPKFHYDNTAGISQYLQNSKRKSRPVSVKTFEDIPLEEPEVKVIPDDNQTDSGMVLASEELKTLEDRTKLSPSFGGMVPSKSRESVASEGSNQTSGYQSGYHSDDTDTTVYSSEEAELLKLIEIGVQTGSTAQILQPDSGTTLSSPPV

IC50 (VEGFR2): 32.2 nM
SMILES: COC(=O)c1ccc2c(c1)NC(=O)/C2=C(\Nc1ccc(C(=O)N(C)OC)cc1)c1ccccc1 [Example 1, (Z)-Methyl 3-(((4-(methoxy(methyl)carbamoyl)phenyl)amino)(phenyl)methylene)-2-oxoindoline-6-carboxylate]
Cell viability at 100 nM (%) (MRC5 cells): 116.6%
Cell viability at 300 nM (%) (MRC5 cells): 97 (n = 2) %
Cell viability at 1000 nM (%) (MRC5 cells): 87 (n = 2) %

Duration of action as inhibitors of PDGFRβ compared with nintedanib (PDGFRβ [1]): longer duration of action
concentration at 0.1 h ([2]; male, CD, iv, i.v. dosing, 0.1 h): 419 nM
concentration at 1.5 h ([2]; male, CD, iv, i.v. dosing, 1.5 h): 266 nM
concentration at 24 h ([2]; male, CD, iv, i.v. dosing, 24 h): 12 nM
concentration at 0.1 h ([2]; male, CD, other: intra-tracheal, i.t. dosing, 0.1 h): 5540 nM
concentration at 1.5 h ([2]; male, CD, other: intra-tracheal, i.t. dosing, 1.5 h): 1540 nM
concentration at 24 h ([2]; male, CD, other: intra-tracheal, i.t. dosing, 24 h): 218 nM
Kp at 0.1 h ([2]; male, CD, iv, i.v. dosing, 0.1 h, read-out: lung/plasma ratio at time(h)): 77
Kp at 1.5 h ([2]; male, CD, iv, i.v. dosing, 1.5 h, read-out: lung/plasma ratio at time(h)): 285
Kp at 0.1 h ([2]; male, CD, other: intra-tracheal, i.t. dosing, 0.1 h, read-out: lung/plasma conc ratio at time(h)): 279
Kp at 1.5 h ([2]; male, CD, other: intra-tracheal, i.t. dosing, 1.5 h, read-out: lung/plasma conc ratio at time(h)): 1320
MRT ([2]; male, CD, plasma, iv, i.v. dosing): 2.4 h
clearance ([2]; male, CD, plasma, iv, i.v. dosing (i.v. dose 0.1-0.5 per compound)): 462 mL/min/kg
Vd ([2]; male, CD, plasma, iv, i.v. dosing, read-out: Vss): 39 L/kg
half-life ([2]; male, CD, plasma, iv, i.v. dosing, read-out: t½ (converted)): 2.2 h
Lung conc i.t./i.v. Ratio at time (h) ([2]; 0.1 h): 13.2
Lung conc i.t./i.v. Ratio at time (h) ([2]; 1.5 h): 5.8
Lung conc i.t./i.v. Ratio at time (h) ([2]; 24 h): 18.2
i.t. BAV (%) ([2]; i.t. dosing (i.t. dose 0.1-0.5 per compound)): 67%
BAL % administered dose at time (h) ([2]; i.t. dosing, 0.1 h): 3%
BAL % administered dose at time (h) ([2]; i.t. dosing, 1.5 h): 0.3%
BAL % administered dose at time (h) ([2]; i.t. dosing, 24 h): 0.1%
BAL % administered dose at time (h) ([2]; i.v. dosing, 0.1 h): 0.01%
BAL % administered dose at time (h) ([2]; i.v. dosing, 1.5 h): BLQ
BAL % administered dose at time (h) ([2]; i.v. dosing, 24 h): BLQ
lung/plasma ratio at time(h) ([2]; i.v. dosing, 24 h): BLQ
IC50 (PDGFRβ [3]): 15.2 nM
Ki (PDGFRβ [4]): 9.66 nM
% Recovery (PAMPA permeability assay): 44.9% and 75.6%
SMILES: COC(=O)c1ccc2c(c1)NC(=O)/C2=C(\Nc1ccc(C(=O)NOCCN2CCN(C)CC2)cc1)c1ccccc1 [Example 4, (Z)-Methyl 3-(((4-((2-(4-methylpiperazin-1-yl)ethoxy)carbamoyl)phenyl)amino)(phenyl)methylene)-2-oxoindoline-6-carboxylate]
Cell viability at 100 nM (%) (MRC5 cells): 99.2%
Cell viability at 300 nM (%) (MRC5 cells): 94.8%
Cell viability at 1000 nM (%) (MRC5 cells): 88.8%
